Molecules are shown by their SMILES.

human σ2 receptor (TMEM97), sequence (Q5BJF2 whole entry): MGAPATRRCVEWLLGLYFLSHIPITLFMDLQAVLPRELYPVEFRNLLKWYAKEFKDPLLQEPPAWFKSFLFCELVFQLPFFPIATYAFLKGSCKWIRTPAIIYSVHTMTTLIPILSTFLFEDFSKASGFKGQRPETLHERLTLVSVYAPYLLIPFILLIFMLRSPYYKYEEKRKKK

This assay addresses human σ2 receptor (TMEM97) (Homo sapiens, UniProt Q5BJF2). Nature of the assay: biochemical. The class given is Expi293 membranes. The settings on record: read-out: % of control remaining.
With `C[C@@H]1COCC[C@@H]1NCCc1c[nH]c2cccc(Br)c12` [ZINC000289897491], the remaining activity at 1 µM was found to be 51%. In the case of `CS[C@@H]1CCN(Cc2cnc(C)n2-c2ccccc2)C1` [ZINC000295103757] it was 114%. In the case of `CS[C@H]1CCN([C@H](C)c2nc(-c3ccccc3C)no2)C1` [ZINC000296435291] it was 106%. As to `C[C@H](COc1ccc(Cl)c(Cl)c1)N[C@@H](C)Cn1cncn1` [ZINC000296612417], the remaining activity at 1 µM stood at 59.2%. On to `CN(CCCN(C)C(=O)C(=O)N(CCO)C1CC1)Cc1ccco1` [ZINC000297448741], for which the remaining activity at 1 µM worked out at 105%.

On to `O=C(CN1CCC(c2nc3cc(Cl)ccc3o2)CC1)N1CCC1` [ZINC000298791523], for which the remaining activity at 1 µM came to 89%.

As to `c1ccc(SC[C@@H]2CCN(c3cc(N4CCCCC4)ncn3)C2)cc1` [ZINC000301468116], the remaining activity at 1 µM was 88.5%. In the case of `CC(C)CC(=O)N[C@@H](C(=O)N1CCC[C@H](N2CCCC2)C1)c1ccccc1` [ZINC000332414923] it was 87.2%. The value for `C[C@H](C(=O)NCC1CCCCC1)N1CCC[C@H](N2CCCC2=O)CC1` [ZINC000334024070] was 111%; that for `O=C1NCCC[C@@H]1N1CC[C@@H](c2cccc(Cl)c2)C1` [ZINC000336580930] was 60.9%. In the case of `C[C@H]1CN(CCN(C)C(=O)C(=O)NC2CCN(C)CC2)C[C@H](C)O1` [ZINC000339640280], the remaining activity at 1 µM amounted to 106%. The value for `Cc1ccncc1N1CCN(C[C@H](O)CN2C[C@@H](C)O[C@H](C)C2)CC1` [ZINC000340106708] was 50%. The value for `Cc1cnc(CN[C@@H](CO)CCC(C)(C)C)n1C` [ZINC000341348768] was 103%; that for `COCCN1CCC(NC(=O)C(=O)N[C@H]2CCOC(C)(C)C2)CC1` [ZINC000343016571] was 118%; that for `C[C@@H]1OCC[C@]1(C)NC(=O)CCc1nc2c(O)nc(=O)n(C)c2[nH]1` [ZINC000345525893] was 90.8%. In the case of `CC[C@H](NC(=O)C(=O)N(CC)CCCN1CCCC1)[C@@H]1CCCO1` [ZINC000345970626] it was 71.7%; in that of `COC(=O)[C@@H]1CCN([C@H](C)C(=O)NCc2ccccc2C)[C@@H]1C` [ZINC000347007006], 108%.

Take `CN(C/C=C\c1ccc(F)c(F)c1)[C@@H]1COC[C@@H]1O` [ZINC000348635286]: the remaining activity at 1 µM stood at 105%. Regarding `C[C@@H]1CCN2C(=O)N(CCCN3CCC[C@@H](C(N)=O)C3)C(=O)[C@H]2C1` [ZINC000349353698], the remaining activity at 1 µM turned out to be 142%. The value for `N#Cc1ccc(N2CCN(C[C@H](O)CC3CCCC3)CC2)c(F)c1` [ZINC000352856249] was 43%; that for `Cc1cc(CN2CC[C@H]2Cc2ccccc2)ccc1-n1cncn1` [ZINC000353995714] was 13.2%; that for `CN1CC[C@](O)(CNC(=O)c2cc3cc([N+](=O)[O-])ccc3s2)C1` [ZINC000358051108] was 102%.

As to `CN1CC[C@](O)(CNC(=O)c2ccc([N+](=O)[O-])c3cccnc23)C1` [ZINC000358062278], the remaining activity at 1 µM stood at 102%. In the case of `CCc1ccnc(CNC(=O)C(=O)N[C@@H]2C[C@H](C)N(C3CC3)C2)c1` [ZINC000358071102] it was 113%. The value for `Cc1ccc([C@H](NC[C@@]2(O)CCN(C)C2)c2ccccc2)cc1` [ZINC000358253868] was 52.1%; that for `CC(C)N1C[C@H](NC(=O)c2ccn(Cc3ccccc3)c2)[C@@H](C)C1` [ZINC000359009035] was 99.8%. The value for `Cc1nc2n(n1)CCN(C(=O)C(=O)N[C@@H]1CCO[C@@H](CC(C)C)C1)C2` [ZINC000361132106] was 76.4%; that for `CCO[C@@H](CC(=O)N1CCCN(C2CCCC2)CC1)C1=CCCC1` [ZINC000362611503] was 27.8%. In the case of `CC(C)N1CCN([C@H]2CCN(C(=O)CC3(O)CCCCC3)C2)CC1` [ZINC000363920872], the remaining activity at 1 µM was determined as 88.9%. Take `CN1CC[C@]2(CCN(C(=O)CN3C(=O)NC4(CCCC4)C3=O)C2)C1` [ZINC000366544782]: the remaining activity at 1 µM was found to be 110%. In the case of `Cc1ccccc1Cc1nnc(CN2C[C@@H](N3CCCC3)C[C@H]2C)o1` [ZINC000367601434] it was 90.8%. In the case of `CN1CCO[C@@H](CN(Cc2cnc(-c3cnn(C)c3)nc2)CC2CC2)C1` [ZINC000369129048], the remaining activity at 1 µM came to 120%. The value for `N#CC1(c2ccccn2)CCN([C@@H]2Cc3ccccc3[C@@H]2O)CC1` [ZINC000369205980] was 112%. In the case of `O=C1CCCCN1[C@@H]1CCCN(Cc2cc(-c3ccccc3)no2)C1` [ZINC000370893072], the remaining activity at 1 µM was found to be 82.1%. Consider `CN1CCC(C(=O)N2CCC[C@@H](c3nc4ccc(F)cc4o3)C2)CC1` [ZINC000370933962], for which the remaining activity at 1 µM turned out to be 98.9%. With `Cc1cc(C)cc(NC(=O)[C@H](C)N2CC[C@@H](C3CCOCC3)C2)c1` [ZINC000374368469], the remaining activity at 1 µM is 5.8%. As to `C[C@@H](CO)N1CCCN([C@@H](C)C(=O)Nc2cccc(Cl)c2Cl)CC1` [ZINC000375486080], the remaining activity at 1 µM is 48.7%.

Take `CC[C@H](c1ccccc1)N1CCC(C#N)(c2ccccn2)CC1` [ZINC000376738332]: the remaining activity at 1 µM turned out to be 84%. Take `CS[C@H](CO)[C@@H](C)NC(=O)N[C@@H]1CCN(C2CCN(C)CC2)C1` [ZINC000377772869]: the remaining activity at 1 µM was determined as 100%. For the molecule `NC(=O)c1ccccc1N1CC[C@H](NC(=O)CC2CCNCC2)C1` [ZINC000378210510], the remaining activity at 1 µM came to 95.3%. In the case of `C[C@H](N[C@@H]1CCCc2c1[nH]c1ccccc21)[C@H]1CCCOC1` [ZINC000389015736] it was 54.1%; in that of `COc1ccc2cc(CN[C@](C)(CO)C(C)C)ccc2c1` [ZINC000398583627], 14.6%. Turning to `CCc1cc(NC(=O)[C@@H]2CC[C@H](C3CC3)N2)ccc1C` [ZINC000407281203], the remaining activity at 1 µM came to 80.8%. Take `O=C(NC1CC1)C(=O)N1CCN(S(=O)(=O)C[C@@H]2CCCO2)CC1` [ZINC000407973885]: the remaining activity at 1 µM was 120%.

Consider `O=C(c1cncc(N2CCOCC2)c1)N1CCN2C(=O)NC[C@@H]2C1` [ZINC000408001865], for which the remaining activity at 1 µM was 110%.

In the case of `CN(Cc1cc(F)cc(F)c1)C(=O)C(=O)N1CC[C@H](N2CC=CC2)C1` [ZINC000410783840], the remaining activity at 1 µM is 103%.

For `C[C@H](C(=O)NCc1ccc(F)cc1)N1C[C@H]2C[C@@H](O)CC[C@H]2C1` [ZINC000412048402], the remaining activity at 1 µM came to 88.6%. The value for `CC1CCN(C[C@H](O)CNc2nccc3ccc([N+](=O)[O-])cc23)CC1` [ZINC000413145325] was 62.9%; that for `O=C(NC[C@H]1CCCN1)Nc1cc(F)cc(F)c1Br` [ZINC000415549177] was 73.8%. Take `Cc1cc([N+](=O)[O-])cc(C)c1S(=O)(=O)NC[C@H]1CCN(C)C1` [ZINC000416493836]: the remaining activity at 1 µM amounted to 72.3%. On to `C[C@H](N)[C@@H]1CCCCN1C(=O)NCc1cn2ccccc2n1` [ZINC000416873685], for which the remaining activity at 1 µM was 127%.

On to `CC(C)(C(=O)N[C@@H]1CCCc2cc(N)ccc21)[C@H](N)c1ccccc1` [ZINC000417806012], for which the remaining activity at 1 µM is 96.2%. The value for `Cc1cccc(C)c1OC[C@H](C)NC(=O)C(=O)NC[C@@H]1CCCNC1` [ZINC000418924570] was 64.9%; that for `CN(Cc1ccccc1)C(=O)CNC(=O)C(=O)N[C@H]1CCCNC1` [ZINC000419445843] was 82.5%.

Take `CC[C@H]1CN(C(=O)C(=O)NCCCN2CCNCC2)CCS1` [ZINC000419873354]: the remaining activity at 1 µM came out at 95.7%. In the case of `NC[C@@H](NC(=O)C(=O)NCCN1CCSCC1)C1CCCC1` [ZINC000420063417] it was 94.1%; in that of `CC(C)Sc1c(Cl)cccc1NC(=O)C(=O)N(C)C[C@H]1CCCN1C` [ZINC000421295130], 77.9%; in that of `COc1ccc(Oc2ccc([N+](=O)[O-])cc2C(=O)N(C)C[C@H]2CCCN2C)cc1` [ZINC000421699823], 96.4%. With `CCC[C@@H](C(=O)N(C)C[C@H]1CCCN1C)c1ccccc1` [ZINC000421701270], the remaining activity at 1 µM worked out at 76.1%. For the molecule `CC(C)CSc1ccc([N+](=O)[O-])cc1C(=O)N(C)C[C@H]1CCCN1C` [ZINC000421710394], the remaining activity at 1 µM worked out at 94.6%.

Take `CC(C)Sc1ccc([N+](=O)[O-])cc1C(=O)N(C)C[C@H]1CCCN1C` [ZINC000421710406]: the remaining activity at 1 µM was 81.8%. Turning to `COC(=O)[C@@]1(C)CCCN(C(=O)C(=O)N[C@@H](C)Cc2ccncc2)C1` [ZINC000422349618], the remaining activity at 1 µM worked out at 129%. In the case of `C[C@H](c1ccccc1Br)N(C)C(=O)C[C@@H]1CCCN1` [ZINC000423867812] it was 95.6%; in that of `O[C@H](COC(c1ccccc1)c1ccccc1)CN1CC[C@@H]2CCC[C@H]21` [ZINC000426471156], 36.3%; in that of `O=C(CN1CC[C@@H]2CCC[C@@H]21)Nc1cccc(I)c1` [ZINC000426526480], 92%. The value for `O[C@@H](CN[C@@H](Cc1ccccc1F)c1ccccc1)CN1CCCC1` [ZINC000429522320] was 60.1%; that for `CCCN1C(=O)N(CC(C)(C)N2CCc3ccccc3C2)C(=O)[C@H]1CC` [ZINC000430847713] was 67.3%. Consider `O=C(C[C@@H]1CCCN1CCOc1cccc([N+](=O)[O-])c1)c1cccs1` [ZINC000430988927], for which the remaining activity at 1 µM was determined as 7.5%. Consider `CCc1ccc([C@@H]2CCN(Cc3cc(=O)n4c(C)cccc4n3)C2)cc1` [ZINC000433044150], for which the remaining activity at 1 µM was 5%. The value for `CN(C(=O)CN1CCC(c2cnc[nH]2)CC1)C(c1ccccc1)c1ccccc1` [ZINC000435004139] was 99.6%.

The values above are taken from doi:10.1101/2021.04.29.441652v1 (biorxiv, 2021).
